# Assay results from patent publication US4988686A, “Cephem compounds and anti-bacterial agent” (Meiji Seika Kabushiki Kaisha, priority 1988, dated 1991).
# Where two headings read alike, the source gives them in different places.
# Legend:
# Assay in all cases: agar-dilution method, minimum inhibitory concentration
# Type in all cases: cell-based
# [1] = tested on: Bacillus subtilis ATCC 6633
# Text: (§1) In order to illustrate the utility of the objective compound (I), anti-bacterial activities measured by the agar-dilution method for some of these compounds (I) are shown in table 1.
# [2] = tested on: Cytrobacter freundii GN346; conditions: read-out: Minimum Inhibitory Concentration
# Text: as §1
# [3] = tested on: Enterobacter cloacae GN7471
# Text: as §1
# Escherichia coli 255 = tested on: Escherichia coli 255
# Text: as §1
# Escherichia coli No. 29 = tested on: Escherichia coli No. 29
# Text: as §1
# [4] = tested on: Klebsiella pneumoniae GN69
# Text: as §1
# Proteus vulgaris 76 = tested on: Proteus vulgaris 76
# Text: as §1
# [5] = tested on: Pseudomonas aeruginosa E-2
# Text: as §1
# [6] = tested on: Pseudomonas aeruginosa IMA-1007
# Text: as §1
# [7] = tested on: Pseudomonas aeruginosa M-0148
# Text: as §1
# [8] = tested on: Pseudomonas cepacia M-0527; conditions: Burkholderia cepacia, M0527
# Text: as §1
# [9] = tested on: Serratia marcescens No. 1
# Text: as §1
# [10] = tested on: Staphylococcus aureus 209PJC-1
# Text: as §1
# [11] = ATCC6633, Bacillus subtilis ATCC 6633, agar-dilution method, read-out: Minimum Inhibitory Concentration
# [12] = Cytrobacter freundii GN346, agar-dilution method
# [13] = Enterobacter cloacae GN7471, agar-dilution method, read-out: Minimum Inhibitory Concentration
# [14] = Klebsiella pneumoniae GN69, agar-dilution method, read-out: Minimum Inhibitory Concentration
# [15] = Proteus vulgaris 76, agar-dilution method, read-out: Minimum Inhibitory Concentration
# [16] = E2, Pseudomonas aeruginosa E-2, agar-dilution method, read-out: Minimum Inhibitory Concentration
# [17] = IMA1007, Pseudomonas aeruginosa IMA-1007, agar-dilution method, read-out: Minimum Inhibitory Concentration
# [18] = M0148, Pseudomonas aeruginosa M-0148, agar-dilution method, read-out: Minimum Inhibitory Concentration
# [19] = Serratia marcescens No. 1, agar-dilution method, read-out: Minimum Inhibitory Concentration
# [20] = 209PJC1, Staphylococcus aureus 209PJC-1, agar-dilution method, read-out: Minimum Inhibitory Concentration
Structure (SMILES),"MIC [1, 11]","MIC [2, 12]","MIC [3, 13]",MIC (Escherichia coli 255),MIC (Escherichia coli No. 29),"MIC [4, 14]",MIC (Proteus vulgaris 76; [15]),"MIC [5, 16]","MIC [6, 17]","MIC [7, 18]",MIC [8],"MIC [9, 19]","MIC [10, 20]",also measured
"CO/N=C(\C(=O)N[C@@H]1C(=O)N2C(C(=O)O)=C(/C=C/c3cc(=O)c(O)cn3O)CS[C@H]12)c1csc(N)n1 [Example 2, (6R, 7R)-7-[(Z)-2-(2-aminothiazol-4-yl)-2-methoxyiminoacetamido]-3-[2-(1,5-dihydroxy-4-pyridon-2-yl)vinyl]-ceph-3-em-4-carboxylic]",6.25 µg/mL,0.1 µg/mL,0.05 µg/mL,≤ 0.025 µg/mL,≤ 0.025 µg/mL,0.05 µg/mL,≤ 0.025 µg/mL,0.1 µg/mL,0.1 µg/mL,0.2 µg/mL,≤ 0.025 µg/mL,≤ 0.025 µg/mL,25 µg/mL,
"CC(C)(O/N=C(\C(=O)N[C@@H]1C(=O)N2C(C(=O)O)=C(/C=C/c3cc(=O)c(O)cn3Cc3ccncc3)CS[C@H]12)c1csc(N)n1)C(=O)O [Example 21, (6R,7R)-7-[(Z)-2-aminothiazol-4-y1)-2-(1-methyl-1-carboxy)ethoxyiminoacetamido]-3-[2-(5-hydroxy-1-(4-pyridyl)methyl-4-pyridon-2-y1)vinyl]-ceph-3-em-4carboxylic acid, trans-isomer]",12.5 µg/mL,6.25 µg/mL,1.56 µg/mL,0.1 µg/mL,0.1 µg/mL,0.1 µg/mL,0.05 µg/mL,0.05 µg/mL,≤ 0.025 µg/mL,0.2 µg/mL,≤ 0.025 µg/mL,0.1 µg/mL,100 µg/mL,
"Cn1cc(O)c(=O)cc1/C=C/C1=C(C(=O)O)N2C(=O)[C@@H](NC(=O)/C(=N\OC(C)(C)C(=O)O)c3csc(N)n3)[C@H]2SC1 [Example 12, (6R,7R)-7-[(Z)-2-(2-aminothiazol-4-y1)-2-(1-methyl-1carboxy)ethoxyiminoacetamido]-3-[2-(5-hydroxy-1-methyl-4-pyridon-2-yl)vinyl]-ceph-3-em-4-carboxylic acid, trans-isomer]",12.5 µg/mL,3.13 µg/mL,0.2 µg/mL,0.05 µg/mL,0.1 µg/mL,0.05 µg/mL,≤ 0.025 µg/mL,0.05 µg/mL,≤ 0.025 µg/mL,0.2 µg/mL,≤ 0.025 µg/mL,0.1 µg/mL,100 µg/mL,
CO/N=C(\C(=O)N[C@@H]1C(=O)N2C(C(=O)O)=C(/C=C\c3cc(=O)c(O)cn3OC)CS[C@H]12)c1csc(N)n1 [Example 10],0.78 µg/mL,25 µg/mL,1.56 µg/mL,0.2 µg/mL,0.2 µg/mL,0.2 µg/mL,0.1 µg/mL,0.78 µg/mL,0.78 µg/mL,12.5 µg/mL,12.5 µg/mL,0.2 µg/mL,12.5 µg/mL,
"CO/N=C(\C(=O)N[C@@H]1C(=O)N2C(C(=O)O)=C(/C=C/c3cc(=O)c(O)cn3C)CS[C@H]12)c1csc(N)n1 [Example 7, (6R ,7R)-7 - [(Z )-2-(2-aminothiazol-4-yl)-2-methoxyiminoacetamido]-3-[2-(5-hydroxy-1-methyl-4-pyridon-2-yl)vinyl]-ceph-3-em-4-carboxylic acid, trans-isomer]",0.78 µg/mL,1.56 µg/mL,0.1 µg/mL,0.1 µg/mL,0.05 µg/mL,0.05 µg/mL,≤ 0.025 µg/mL,1.56 µg/mL,1.56 µg/mL,12.5 µg/mL,≤ 0.025 µg/mL,≤ 0.025 µg/mL,6.25 µg/mL,
"CC(C)(O/N=C(\C(=O)N[C@@H]1C(=O)N2C(C(=O)O)=C(/C=C/c3cc(=O)c(O)cn3O)CS[C@H]12)c1csc(N)n1)C(=O)O [Example 5, (6R,7R)-7-[(Z)-2-(2-aminothiazol-4-yl)-2-(1-methyl-1carboxy)ethoxyiminoacetamido]-3-[2-(1,5-dihydroxy-4-pyridon-2-yl)vinyl]-ceph-3-em-4-carboxylic acid, trans-isomer]",100 µg/mL,12.5 µg/mL,0.78 µg/mL,≤ 0.025 µg/mL,0.1 µg/mL,≤ 0.025 µg/mL,≤ 0.025 µg/mL,≤ 0.025 µg/mL,≤ 0.025 µg/mL,≤ 0.025 µg/mL,≤ 0.025 µg/mL,0.05 µg/mL,> 100 µg/mL,
"CC(C)(O/N=C(\C(=O)N[C@@H]1C(=O)N2C(C(=O)[O-])=C(C[n+]3ccccc3)CS[C@H]12)c1csc(N)n1)C(=O)O [Ceftazidime, reference compound]",,,,25 µg/mL,0.2 µg/mL,,,,,,0.39 µg/mL,,,"MIC ([1]; Bacillus subtilis, ATCC6633, read-out: Minimum Inhibitory Concentration): 3.13 µg/mL; MIC [2]: 25 µg/mL; MIC ([3]; Enterobacter cloacae, GN7471, read-out: Minimum Inhibitory Concentration): 3.13 µg/mL; MIC ([4]; Klebsiella pneumoniae, GN69, read-out: Minimum Inhibitory Concentration): 0.1 µg/mL; MIC (Proteus vulgaris 76; Proteus vulgaris, 76, read-out: Minimum Inhibitory Concentration): 0.05 µg/mL; MIC ([5]; Pseudomonas aeruginosa, E2, read-out: Minimum Inhibitory Concentration): 0.39 µg/mL; MIC ([6]; Pseudomonas aeruginosa, IMA1007, read-out: Minimum Inhibitory Concentration): 0.78 µg/mL; MIC ([7]; Pseudomonas aeruginosa, M0148, read-out: Minimum Inhibitory Concentration): 1.56 µg/mL; MIC ([9]; Serratia marcescens, NO.1, read-out: Minimum Inhibitory Concentration): ≤ 0.025 µg/mL; MIC ([10]; Staphylococcus aureus, 209PJC1, read-out: Minimum Inhibitory Concentration): 3.13 µg/mL"
